{"source": "patent US20250360111A1", "about": "“COMPOSITIONS OF AGPAT4 INHIBITORS AND METHODS OF USING THEREOF TO TREAT CANCER” (The University of Hong Kong, priority 2024, published 2025)", "system": "AGPAT LPAAT family members (AGPAT1, 2, 3, 4 and 5)", "assay": "Isoform specificity: streptavidin pulldown and immunoblotting of CL26-alkyne-bound proteins", "type": "cell-based, human", "details": "Huh7 cells, DTB-PEG-azide, streptavidin pulldown", "experimental": "An in-gel fluorescence assay was performed to investigate the protein targets of CL26. Huh7 cells overexpressing AGPAT4 or cysteine mutants were pre-treated with CL26 at the indicated concentrations for 2 h, followed by CL26-alkyne (1 μM) treatment for another 2 h. Cells were harvested in RIPA buffer supplemented with protease and phosphatase inhibitors (Thermo Fisher Scientific #A32961). The proteins were precipitated by incubation with 6× volume of pre-chilled acetone at −20° C. overnight. Proteins were pelleted by centrifugation at 5000 g for 10 min and resuspended in PBS. The protein content was measured using the BCA assay and normalized to 2 mg/mL. Cell lysates (50 μL) were labelled with azide-fluor 545 by click reaction (final reaction mixture: azide-fluor 545 (25 μM), copper(II) sulfate (1 mM), TBTA (100 μM), and freshly prepared TCEP (1 mM)) at room temperature with constant agitation. After incubation for 1 h, the reaction was quenched with the sampling buffer and boiled at 90° C. for 5 min. Samples were subjected to SDS-PAGE, in-gel fluorescence was captured using ChemiDoc MP (Bio-Rad), and Coomassie Blue staining was performed. Similarly, immunoblotting was used to investigate the protein targets of CL26. […] The samples were subjected to SDS-PAG E and imaged for fluorescence signals before western blot analysis. […]", "data": [{"smiles": "O=C(CCl)NCc1ccc(-c2nc3ccccc3s2)o1", "note": "[CL26, N-[[5-(2-benzothiazolyl)-2-furanyl]methyl]-2-chloroacetamide]", "values": [{"measurement": "specificity for AGPAT4 over other AGPAT LPAAT family members", "value": "only targets AGPAT4 and no other related AGPAT isoforms"}]}]}
